ChEMBL document CHEMBL4270546, “A novel Anti-Cancer Stem Cells compound optimized from the natural symplostatin 4 scaffold inhibits Wnt/β-catenin signaling pathway” (Eur J Med Chem, 2018)

How the values were obtained:
Assay type in all cases: functional, cell-based
[1] = tested on: MCF7; assay: Antiproliferative activity against human MCF7 cells after 48 hrs by MTT assay; settings: MCF7, 48 h
[2] = tested on: 4T1; assay: Antiproliferative activity against mouse 4T1 cells after 48 hrs by MTT assay; settings: 4T1, 48 h
[3] = tested on: MDA-MB-231; assay: Antiproliferative activity against human MDA-MB-231 cells after 48 hrs by MTT assay; settings: MDA-MB-231, 48 h
[4] = tested on: A549; assay: Antiproliferative activity against human A549 cells after 48 hrs by MTT assay; settings: A549, 48 h
[5] = tested on: PANC-1; assay: Antiproliferative activity against human PANC1 cells after 48 hrs by MTT assay; settings: PANC-1, 48 h
[6] = tested on: B16-F10; assay: Antiproliferative activity against mouse B16F10 cells after 48 hrs by MTT assay; settings: B16-F10, 48 h
[7] = tested on: A-375; assay: Antiproliferative activity against human A375 cells after 48 hrs by MTT assay; settings: A-375, 48 h
[8] = tested on: HT-29; assay: Antiproliferative activity against human HT-29 cells
[9] = tested on: HeLa; assay: Antiproliferative activity against human HeLa cells

SMILES | IC50 [1] [µM] | IC50 [2] [µM] | IC50 [3] [µM] | IC50 [4] [µM] | IC50 [5] [µM] | IC50 [6] [µM] | IC50 [7] [µM] | IC50 [8] [µM] | IC50 [9] [µM]
CC[C@H](C)[C@H](NC(=O)Cc1cccc(C(F)(F)F)c1)C(=O)N[C@@H](CC(C)C)C(=O)N[C@@H](CC(C)C)C(=O)N[C@@H](C)/C=C/C(=O)N1C(=O)C=C(OC)[C@@H]1C(C)C | 11.2 | 40.8 | 32.8 | 14.6 | 11.6 | 15.2 | 15.2 |  | 
COC1=CC(=O)N(C(=O)/C=C/[C@H](C)NC(=O)[C@H](CC(C)C)N(C)C)[C@@H]1Cc1ccccc1 | > 100 | > 100 | 94.8 | > 100 | 86.9 | > 100 | > 100 |  | 
CC[C@H](C)[C@@H](C(=O)O[C@@H](CC(C)C)C(=O)N[C@@H](CC(C)C)C(=O)N[C@@H](C)/C=C/C(=O)OC)N(C)C | > 100 | > 100 | > 100 | > 100 | > 100 | > 100 | > 100 |  | 
CC[C@H](C)[C@H](NC(=O)OCc1ccccc1)C(=O)O[C@@H](CC(C)C)C(=O)N[C@@H](CC(C)C)C(=O)N[C@@H](C)/C=C/C(=O)N1C(=O)C=C(OC)[C@@H]1Cc1ccccc1 | > 100 | 79.8 | > 100 | 41.4 | 59.3 | 30.1 | 45.9 |  | 
COC1=CC(=O)N(C(=O)/C=C/[C@H](C)NC(=O)[C@H](CC(C)C)N(C)C)[C@H]1C(C)C | 18.6 | > 100 | 89.5 | > 100 | 12.8 | 30.5 | 7.56 |  | 
CC[C@H](C)[C@H](NC(=O)OCc1ccccc1)C(=O)N[C@@H](CC(C)C)C(=O)N[C@@H](CC(C)C)C(=O)N[C@@H](C)/C=C/C(=O)N1C(=O)C=C(OC)[C@@H]1C | 4.66 | 1.92 | 1.96 | 15.1 | 0.787 | 0.892 | 1.35 |  | 
CC[C@H](C)[C@@H](C(=O)O[C@@H](CC(C)C)C(=O)N[C@@H](CC(C)C)C(=O)N[C@@H](C)/C=C/C(=O)N1CCOCC1)N(C)C | > 100 | > 100 | > 100 | > 100 | > 100 | > 100 | > 100 |  | 
CC[C@H](C)[C@@H](C(=O)O[C@@H](CC(C)C)C(=O)N[C@@H](CC(C)C)C(=O)N[C@@H](C)/C=C/C(=O)N(CC)CC)N(C)C | > 100 | > 100 | > 100 | > 100 | > 100 | > 100 | > 100 |  | 
CC[C@H](C)[C@H](NC(=O)OCc1ccccc1)C(=O)O[C@@H](CC(C)C)C(=O)N[C@@H](CC(C)C)C(=O)N[C@@H](C)/C=C/C(=O)N1C(=O)C=C(OC)[C@@H]1C(C)C | 21.2 | 27.9 | 12.8 | 27.5 | 19.6 | 24.9 | 13.7 |  | 
CC[C@H](C)[C@@H](C(=O)O[C@@H](CC(C)C)C(=O)N[C@@H](CC(C)C)C(=O)N[C@@H](C)/C=C/C(=O)NC(C)(C)C)N(C)C | > 100 | > 100 | > 100 | > 100 | 38.3 | > 100 | > 100 |  | 
C#CCCC(=O)N[C@H](C(=O)N[C@@H](CC(C)C)C(=O)N[C@@H](CC(C)C)C(=O)N[C@@H](C)/C=C/C(=O)N1C(=O)C=C(OC)[C@@H]1C(C)C)[C@@H](C)CC | 14.9 | 20.1 | 22.2 | 36.2 | 5.21 | 7.07 | 9.89 |  | 
COC1=CC(=O)N(C(=O)/C=C/[C@H](C)NC(=O)[C@H](CC(C)C)N(C)C)[C@H]1C | 75.1 | 19.2 | 79.7 | 30 | 82.1 | 29.2 | 11.4 |  | 
CC[C@H](C)[C@H](NC(=O)OCc1ccccc1)C(=O)O[C@@H](CC(C)C)C(=O)N[C@@H](CC(C)C)C(=O)N[C@@H](C)/C=C/C(=O)N1C(=O)C=C(OC)[C@@H]1C | 32.9 | 15 | 15.6 | 13.8 | 14 | 4.23 | 5.49 |  | 
CC[C@H](C)[C@@H](C(=O)N[C@@H](CC(C)C)C(=O)N[C@@H](CC(C)C)C(=O)N[C@@H](C)/C=C/C(=O)N1C(=O)C=C(OC)[C@@H]1C)N(C)C | 38.9 | 16.5 | 38.2 | 50.5 | 15.7 | 15.1 | 11.2 |  | 
CC[C@H](C)[C@@H](C(=O)O[C@@H](CC(C)C)C(=O)N[C@@H](CC(C)C)C(=O)N[C@@H](C)/C=C/C(=O)N1C(=O)C=C(OC)[C@@H]1C)N(C)C [GALLINAMIDE A] | 45.5 | 34.6 | 34.9 | 40.4 | 31.2 | 59.7 | 45.6 | 53 | 12
CC[C@H](C)[C@@H](C(=O)N[C@@H](CC(C)C)C(=O)N[C@@H](CC(C)C)C(=O)N[C@@H](C)/C=C/C(=O)N1C(=O)C=C(OC)[C@@H]1C(C)C)N(C)C | > 100 | 27.6 | 98.3 | 52.5 | 36 | 61.6 | 35.7 |  | 
COC1=CC(=O)N(C(=O)/C=C/[C@H](C)NC(=O)[C@H](CC(C)C)N(C)C)[C@H]1Cc1ccccc1 | > 100 | > 100 | 57.7 | > 100 | 67 | > 100 | > 100 |  | 
CC[C@H](C)[C@H](NC(=O)OCc1ccccc1)C(=O)N[C@@H](CC(C)C)C(=O)N[C@@H](CC(C)C)C(=O)N[C@@H](C)/C=C/C(=O)N1C(=O)C=C(OC)[C@@H]1Cc1ccccc1 | > 100 | > 100 | > 100 | > 100 | > 100 | > 100 | > 100 |  | 
CC[C@H](C)[C@H](NC(=O)Nc1ccc(OC)cc1)C(=O)N[C@@H](CC(C)C)C(=O)N[C@@H](CC(C)C)C(=O)N[C@@H](C)/C=C/C(=O)N1C(=O)C=C(OC)[C@@H]1C(C)C | 10.1 | 35.3 | 25.1 | 20.8 | > 100 | 60.5 | 44.2 |  | 
CC[C@H](C)[C@H](NC(=O)OCc1ccccc1)C(=O)N[C@@H](CC(C)C)C(=O)N[C@@H](CC(C)C)C(=O)N[C@@H](C)/C=C/C(=O)N1C(=O)C=C(OC)[C@@H]1c1c[nH]c2ccccc12 | > 100 | > 100 | > 100 | > 100 | > 100 | > 100 | > 100 |  | 
